Measurements taken from patent US7563592B2, “Alizarin-based chromogenic substrates, their uses and composition containing same” (Biomerieux, S.A., priority 1999, dated 2009).

Tests used:
[1] = system: Shigella boydii; assay: β-galactosidase detection on semi-solid medium, clinical and environmental strains (Example 2); assay type: cell-based; conditions: 50 mg/l + iron citrate 500 mg/l; 18 hours; 1 strain tested
[2] = system: Citrobacter diversus; assay: as above; assay type: cell-based; conditions: 50 mg/l + iron citrate 500 mg/l; 18 hours; 9 strains tested
[3] = system: Serratia odorifera; assay: as above; assay type: cell-based; conditions: 50 mg/l + iron citrate 500 mg/l; 18 hours; 1 strain tested
[4] = system: Enterobacter aerogenes; assay: as above; assay type: cell-based; conditions: 50 mg/l + iron citrate 500 mg/l; 18 hours; 9 strains tested
[5] = system: Serratia marcescens 042; assay: β-galactosidase detection in semi-solid Columbia medium (Example 1); assay type: cell-based
[6] = system: Morganella morganii; assay: β-galactosidase detection on semi-solid medium, clinical and environmental strains (Example 2); assay type: cell-based; conditions: 50 mg/l + iron citrate 500 mg/l; 18 hours; 12 strains tested
[7] = system: Providencia alcalifaciens; assay: as above; assay type: cell-based; conditions: 50 mg/l + iron citrate 500 mg/l; 18 hours; 3 strains tested
[8] = system: Klebsiella pneumoniae 023; assay: β-galactosidase detection in semi-solid Columbia medium (Example 1); assay type: cell-based
[9] = system: eight (8) species tested; assay: β-glucosidase detection in API strip wells, all species together (Example 6); assay type: cell-based; conditions: of the eight (8) species tested; 0.12 g/l + iron citrate 0.05 g/l
[10] = system: Listeria ivanovii 018; assay: Effect of metal salts on the color of the marker part, substrate 50 mg/l in Columbia medium (Example 3); assay type: cell-based
Description: (§1) To the Columbia-base medium (46.37 g/l) supplemented with Alizarin-2-β-D-glucoside (50 mg/l), were added either Manganese chloride, Ammoniacal iron citrate, Tin chloride, or Aluminum sulfate, all at a concentration of 50 mg/l. A control medium with no metal salts was tested in parallel. After autoclaving, these various media were all used to prepare Petri dishes (20 ml per plate). […] It should be pointed out that intensity readings are in arbitrary units. The only purpose of giving these values is to make it possible to compare one strain with another in this respect. The same is true for the examples which follow. Similarly, the strains tested were taken from the Applicant's collection and the number given represents an internal reference specific to this collection. The same internal numbering system is also used in some of the examples given later on.

[11] = system: Listeria ivanovii 020; assay: as above; assay type: cell-based
Description: as §1

[12] = system: Enterococcus faecalis 117; assay: Comparison of glucoside substrates in semi-solid Columbia medium (Example 7); assay type: cell-based; conditions: 0.05 g/l + iron citrate 0.05 g/l
[13] = system: Listeria innocua 036; assay: β-glucosidase detection in API strip wells (Example 6); conditions: 0.12 g/l + iron citrate 0.05 g/l
[14] = system: Listeria seeligeri 080; assay: as above; conditions: 0.12 g/l + iron citrate 0.05 g/l
[15] = system: Enterococcus faecium 009; assay: as above; conditions: 0.12 g/l + iron citrate 0.05 g/l
[16] = system: Citrobacter koseri 059; assay: Comparison of glucoside substrates in semi-solid Columbia medium (Example 7); assay type: cell-based; conditions: 0.05 g/l + iron citrate 0.05 g/l
[17] = Manganese chloride 50 mg/l, 24 H
[18] = Manganese chloride 50 mg/l, 48 H

## O=C1c2ccccc2C(=O)c2c1ccc(O[C@@H]1O[C@H](CO)[C@H](O)[C@H](O)[C@H]1O)c2O [Alizarin-2-β-D-galactoside]
[1]
  percentage of positive strains: 0%
[2]
  percentage of positive strains: 89%
[3]
  percentage of positive strains: 100%
[4]
  percentage of positive strains: 100%
[5]; 0.01 g/l + iron citrate, 48 H
  Color: purple
  Intensity: 0.3
[5]; 0.03 g/l + iron citrate, 18 H
  Color: purple
  Intensity: 0.5
[5]; 0.03 g/l + iron citrate, 24 H
  Color: purple
  Intensity: 1
[5]; 0.03 g/l + iron citrate, 48 H
  Color: purple
  Intensity: 1.7
[5]; 0.05 g/l + iron citrate, 18 H
  Color: purple
  Intensity: 1
[5]; 0.05 g/l + iron citrate, 24 H
  Color: purple
  Intensity: 2.5
[5]; 0.05 g/l + iron citrate, 48 H
  Color: purple
  Intensity: 3
[5]; 0.08 g/l + iron citrate, 18 H
  Color: purple
  Intensity: 2
[5]; 0.08 g/l + iron citrate, 24 H
  Color: purple
  Intensity: 2.5
[5]; 0.08 g/l + iron citrate, 48 H
  Color: purple
  Intensity: 3.5
[6]
  percentage of positive strains: 0%
[7]
  percentage of positive strains: 0%
[8]; 0.03 g/l + iron citrate, 18 H
  Color: purple
  Intensity: 0.3
[8]; 0.03 g/l + iron citrate, 24 H
  Color: purple
  Intensity: 0.3
[8]; 0.03 g/l + iron citrate, 48 H
  Color: purple
  Intensity: 0.5
[8]; 0.05 g/l + iron citrate, 18 H
  Color: purple
  Intensity: 0.8
[8]; 0.05 g/l + iron citrate, 24 H
  Color: purple
  Intensity: 1
[8]; 0.05 g/l + iron citrate, 48 H
  Color: purple
  Intensity: 1
[8]; 0.08 g/l + iron citrate, 18 H
  Color: purple
  Intensity: 1.5
[8]; 0.08 g/l + iron citrate, 24 H
  Color: purple
  Intensity: 1.5
[8]; 0.08 g/l + iron citrate, 48 H
  Color: purple
  Intensity: 1.7

## O=C1c2ccccc2C(=O)c2c1ccc(O[C@@H]1O[C@H](CO)[C@@H](O)[C@H](O)[C@H]1O)c2O [Alizarin-2-β-D-glucoside]
[9]
  species in which activity was detected: 7 species
[10]; Aluminum sulfate 50 mg/l, 24 H
  Color: red
  Intensity: 4 arbitrary units
[10]; Aluminum sulfate 50 mg/l, 48 H
  Color: red
  Intensity: 4 arbitrary units
[10]; Control, no metal salt, 24 H
  Color: purple
  Intensity: 2.3 arbitrary units
[10]; Control, no metal salt, 48 H
  Color: purple
  Intensity: 2.3 arbitrary units
[10]; Iron citrate 50 mg/l, 24 H
  Color: purple
  Intensity: 4 arbitrary units
[10]; Iron citrate 50 mg/l, 48 H
  Color: purple
  Intensity: 4 arbitrary units
[10]; [17]
  Color: purple
  Intensity: 2.7 arbitrary units
[10]; [18]
  Color: purple
  Intensity: 2.7 arbitrary units
[10]; Tin chloride 50 mg/l, 24 H
  Color: orange
  Intensity: 3 arbitrary units
[10]; Tin chloride 50 mg/l, 48 H
  Color: orange
  Intensity: 4 arbitrary units
[11]; Aluminum sulfate 50 mg/l, 24 H
  Color: red
  Intensity: 4 arbitrary units
[11]; Aluminum sulfate 50 mg/l, 48 H
  Color: red
  Intensity: 4 arbitrary units
[11]; Control, no metal salt, 24 H
  Color: purple
  Intensity: 2.3 arbitrary units
[11]; Control, no metal salt, 48 H
  Color: purple
  Intensity: 2.3 arbitrary units
[11]; Iron citrate 50 mg/l, 24 H
  Color: purple
  Intensity: 4 arbitrary units
[11]; Iron citrate 50 mg/l, 48 H
  Color: purple
  Intensity: 4 arbitrary units
[11]; [17]
  Color: purple
  Intensity: 2.7 arbitrary units
[11]; [18]
  Color: purple
  Intensity: 2.7 arbitrary units
[11]; Tin chloride 50 mg/l, 24 H
  Color: orange
  Intensity: 3 arbitrary units
[11]; Tin chloride 50 mg/l, 48 H
  Color: orange
  Intensity: 4 arbitrary units
[12]; 18 H
  Color: Purple
  Intensity: 3.5 arbitrary units
[12]; 24 H
  Color: Purple
  Intensity: 4 arbitrary units
[12]; 48 H
  Color: Purple
  Intensity: 4 arbitrary units
[13]; 4 H
  Color observed: Purple
[13]; 24 H
  Color observed: Purple
[14]; 4 H
  Color observed: Purple
[14]; 24 H
  Color observed: Purple
[15]; 4 H
  Color observed: Purple
[15]; 24 H
  Color observed: Purple
[16]; 18 H
  Color: Mauve
  Intensity: 2 arbitrary units
[16]; 24 H
  Color: Mauve
  Intensity: 3 arbitrary units
[16]; 48 H
  Color: Mauve
  Intensity: 3.5 arbitrary units
